Here are results for 3 compounds from US20250177430A1, “Compositions Comprising NAD+ and Associated Methods of Treatment” (priority 2022, published 2025).

Series [1] has as its system opiate withdrawal symptoms. Nature of the series: Treatment of opiate/heroin withdrawal patients, delivery by SphenoCath to the sphenopalatine foramen. Format: in vivo, human.
Source text: A device called the SphenoCath has been used to administer medication to the sphenopalatine foramen. The SphenoCath is a curved flexible catheter with a semi-rigid retractable sheath overlaying the catheter attached to a syringe. The SphenoCath is inserted through the nostril, until the tip of the SphenoCath reaches the anterior roof of the nasal cavity. The sheath of the SphenoCath is retracted allowing the curved inner catheter to drop over the anterior aspect of the middle turbinate. With the head correctly positioned medication is reliably dispensed to the area of the membrane covering the sphenopalatine foramen, and then through absorption into the pterygopalatine fossa and the nerves contained therein.
At the eleventh treatment dexamethasone was added to the combination. […] The treatment including dexamethasone was repeated 2 more times.
The test system of series [2] is dissociative experience and discomfort. The series can be described thus: Tolerability and dissociative effects in treated patients. From the text: The individual components of the composition can be administered individually.
For series [3], the system named is anxiety and depression. Nature of the series: Treatment of anxiety and depression patients, delivery by SphenoCath, subjective and family reports. Format: in vivo, human. The settings on record: Patient 2; single IV treatment, about 30 mg.
Procedure: Patient continued treatment over the course of a six-month period on an as-needed basis, which ranged from twice a week to every other month.
Inventor and patient decided to begin with the fairly typical six treatment induction phase used by IV ketamine clinics, but deliver it using the SphenoCath to the sphenopalatine foramen.
The fourth treatment was 2 ml of the combination with concentrations of 80 mg/ml NAD+, 12.5 mg/ml ketamine, and 5 mg/ml. […] Several of the treatments included a rotation of the head. For example, the combination was administered to the Patient and the head was rotated 30 degrees to the right for 5 minutes, then 30 degrees to the left for 5 minutes and then neutral for 5 minutes. Other times the head was rotated to the right at 30 degrees for 5 minutes, then 30 degrees to the left for 5 minutes and then neutral for 5 minutes.
Patient 5 completed the GAD 7 and PHQ 9 screening tools before treatment and two weeks after completion of the series. […] Patient returned for “booster” treatments four months later. […] The treatment regime also included 30-degree rotation to the right for 5 minutes, then 30-degree rotation to the left for 5 minutes, finally neutral for 5 minutes.
The first treatment was 1.8 ml of the combination with concentrations of 55 mg/ml NAD+, 14 mg/ml ketamine, 3 mg/ml. […]
The subject of series [4] is migraine and facial pain. The note with it: through the sphenopalatine foramen into the pterygopalatine fossa; inventor's patients.

Turning to `NC(=O)c1ccc[n+]([C@@H]2O[C@H](COP(=O)([O-])OP(=O)(O)OC[C@H]3O[C@@H](n4cnc5c(N)ncnc54)[C@H](O)[C@@H]3O)[C@@H](O)[C@H]2O)c1` [NAD+], the “effect of adding NAD+ on chemical dependency (withdrawal symptoms and cravings)” value in series [1] (added to lidocaine, general observation) is listed as “significantly enhanced the effect on chemical dependency”. Besides, in series [2] (NAD+ administered individually), the “patient experience on receiving the component individually” value was “less pleasant and can lead to discomfort”. Further, the “effect on dissociative effects of the NMDA receptor antagonist” value in series [2] (NAD+ in composition with lidocaine and ketamine) is “significantly diminishes the dissociative effects”.

For `CNC1(c2ccccc2Cl)CCCCC1=O` (centres unmarked) [ketamine], in series [3], the effect on mood entry is recorded as “about the same as the intranasal treatments”. In series [2] (IV and intranasal, compared with mixture of NAD+, lidocaine and ketamine), the “patient experience with ketamine alone” value is “more intense and dissociative experience”. In series [2] (Patient 2, IV at a ketamine clinic, stopped after about 30 mg), the “patient experience of IV ketamine” value was “very dissociative and unpleasant experience”. Further, the “time until patient felt fine after discontinuation” value in series [2] (Patient 2, single IV treatment, about 30 mg) is 30 to 45 min. Besides, the “patient state after ketamine alone” value in series [2] (Patient 4, 15 minutes after intranasal delivery to sphenopalatine foramen, slightly lower dose than in the combined treatment) was “very agitated and uncomfortable”.

For `CCN(CC)CC(=O)Nc1c(C)cccc1C` [lidocaine], the opiate withdrawal symptoms result in series [1] (person, SphenoCath, treated twice 48 hours apart) is “noticeably improved”. In series [1] (person, buprenorphine was necessary for previous detox episodes), the “need for buprenorphine during withdrawal” value is recorded as “able to go through withdrawal without the use bupenophrine”. The “treatment success in chronic/acute migraine, cluster headache, trigeminal and postherpetic neuralgia, post-concussion headache” value in series [4] is “successful in most cases”.
